What all share (format): in vivo
Holding throughout (details): 5 mg/kg oral gavage

One test addresses ABHD6 (Mus musculus (Mouse), UniProt Q8R2Y0). Nature of the test: Mouse brain proteomes from inhibitor treated mice (oral gavage, sacrifice 4 h after administration, ABPP analysis), ABHD6. On the procedure:
(§1) Preparation of Mouse Brain Proteomes from Inhibitor Treated Mice.
(§2) Inhibitors were administered to wild-type C57Bl/6J by oral gavage in a vehicle, e.g. PEG400/Ethanol/PBS (7/2/1). Each animal was sacrificed 4 h following administration and brain proteomes were prepared and analyzed according to previously established methods (See Niphakis, M. J., et al. (2011) ACS Chem. Neurosci. and Long, J. Z., et al. Nat. Chem. Biol. 5:37-44). Data from this assay is shown in Table 2 (% inhibition at 5 mg/kg).

In a further test the target is MAGL (Mus musculus (Mouse), UniProt O35678). Description: Mouse brain proteomes from inhibitor treated mice (oral gavage, sacrifice 4 h after administration, ABPP analysis). The protocol:
as §1, §2

For the next test, the target named is FAAH (Mus musculus (Mouse), UniProt O08914). Nature of the test: Mouse brain proteomes from inhibitor treated mice (oral gavage, sacrifice 4 h after administration, ABPP analysis), FAAH. On the procedure:
as §1, §2

Molecules are shown by their SMILES.

Chain of ABHD6 (Q8R2Y0 whole entry): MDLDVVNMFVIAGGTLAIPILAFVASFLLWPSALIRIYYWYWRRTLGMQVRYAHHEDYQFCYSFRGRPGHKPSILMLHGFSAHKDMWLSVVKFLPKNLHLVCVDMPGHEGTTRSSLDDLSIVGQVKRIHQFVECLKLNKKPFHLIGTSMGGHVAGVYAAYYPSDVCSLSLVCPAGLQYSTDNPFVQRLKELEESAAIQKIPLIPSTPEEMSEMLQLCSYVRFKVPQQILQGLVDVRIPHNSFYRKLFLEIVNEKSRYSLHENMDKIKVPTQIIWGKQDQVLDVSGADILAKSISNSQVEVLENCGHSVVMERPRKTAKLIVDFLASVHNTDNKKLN
Chain of MAGL (O35678 whole entry): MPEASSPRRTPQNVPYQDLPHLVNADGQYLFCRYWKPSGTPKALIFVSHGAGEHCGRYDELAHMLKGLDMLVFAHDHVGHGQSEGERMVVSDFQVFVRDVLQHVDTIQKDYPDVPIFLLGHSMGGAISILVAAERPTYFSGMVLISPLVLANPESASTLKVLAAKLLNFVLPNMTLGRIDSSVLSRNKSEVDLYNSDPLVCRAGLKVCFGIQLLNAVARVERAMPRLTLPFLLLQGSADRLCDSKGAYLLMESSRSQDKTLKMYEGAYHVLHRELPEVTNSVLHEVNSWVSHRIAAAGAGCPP
Chain of FAAH (O08914 whole entry): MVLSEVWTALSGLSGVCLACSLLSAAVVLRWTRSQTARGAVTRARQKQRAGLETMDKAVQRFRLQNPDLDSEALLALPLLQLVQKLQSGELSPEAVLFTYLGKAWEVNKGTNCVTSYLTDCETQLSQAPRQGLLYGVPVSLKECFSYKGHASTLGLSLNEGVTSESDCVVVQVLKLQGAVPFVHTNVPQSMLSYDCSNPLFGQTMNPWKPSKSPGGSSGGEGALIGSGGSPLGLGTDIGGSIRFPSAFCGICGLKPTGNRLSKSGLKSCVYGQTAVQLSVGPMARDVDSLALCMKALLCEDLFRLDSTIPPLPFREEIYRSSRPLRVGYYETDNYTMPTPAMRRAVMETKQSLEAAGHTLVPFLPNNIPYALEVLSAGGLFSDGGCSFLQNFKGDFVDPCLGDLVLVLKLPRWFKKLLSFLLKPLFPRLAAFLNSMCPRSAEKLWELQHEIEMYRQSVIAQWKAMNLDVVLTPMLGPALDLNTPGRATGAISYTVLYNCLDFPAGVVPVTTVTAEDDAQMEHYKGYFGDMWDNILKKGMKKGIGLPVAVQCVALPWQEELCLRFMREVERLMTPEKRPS

As for `CCOc1ccc(CN2CCCC23CCN(C(=O)OC(C(F)(F)F)C(F)(F)F)CC3)cc1` [Example 4, 1,1,1,3,3,3-Hexafluoropropan-2-yl 1-(4-ethoxybenzyl)-1,8-diazaspiro[4.5]decane-8-carboxylate], the “ABHD6 % Inh 5 mg/kg (mouse)” value on ABHD6 is given as “# (# is < 25%)”. Moreover, the “MAGL % Inh 5 mg/kg (mouse)” value at MAGL is “### (### is ≥ 75%)”. Moreover, the “FAAH % Inh 5 mg/kg (mouse)” value at FAAH is reported as “# (# is < 25%)”.

Take `COc1cccc(CN2CCCC23CCN(C(=O)OC(C(F)(F)F)C(F)(F)F)CC3)c1Cl` [Example 7, 1,1,1,3,3,3-Hexafluoropropan-2-yl 1-(2-chloro-3-methoxybenzyl)-1,8-diazaspiro[4.5]decane-8-carboxylate]: on ABHD6, the “ABHD6 % Inh 5 mg/kg (mouse)” value was “# (# is < 25%)”. Further, the “MAGL % Inh 5 mg/kg (mouse)” value at MAGL is given as “### (### is ≥ 75%)”. Moreover, at FAAH, the “FAAH % Inh 5 mg/kg (mouse)” value is “### (### is ≥ 75%)”.

For `COc1cc(Cl)ccc1CN1CCCC12CCN(C(=O)OC(C(F)(F)F)C(F)(F)F)CC2` [Example 9, 1,1,1,3,3,3-Hexafluoropropan-2-yl 1-(4-chloro-2-methoxybenzyl)-1,8-diazaspiro[4.5]decane-8-carboxylate], the “ABHD6 % Inh 5 mg/kg (mouse)” value on ABHD6 is listed as “# (# is < 25%)”. Further, the “MAGL % Inh 5 mg/kg (mouse)” value at MAGL was “### (### is ≥ 75%)”. In addition, the “FAAH % Inh 5 mg/kg (mouse)” value at FAAH was “# (# is < 25%)”.

Take `COc1c(Cl)cccc1CN1CCCC12CCN(C(=O)OC(C(F)(F)F)C(F)(F)F)CC2` [Example 10, 1,1,1,3,3,3-Hexafluoropropan-2-yl 1-(3-chloro-2-methoxybenzyl)-1,8-diazaspiro[4.5]decane-8-carboxylate]: the “ABHD6 % Inh 5 mg/kg (mouse)” value at ABHD6 is “# (# is < 25%)”. At MAGL, the “MAGL % Inh 5 mg/kg (mouse)” value is reported as “### (### is ≥ 75%)”.

As to `CN(C)C(=O)C1CCN(c2cc(C(F)(F)F)ccc2CN2CCCC23CCN(C(=O)OC(C(F)(F)F)C(F)(F)F)CC3)CC1` [Example 16, 1,1,1,3,3,3-Hexafluoropropan-2-yl 1-(2-(4-(dimethylcarbamoyl)piperidin-1-yl)-4-(trifluoromethyl)benzyl)-1,8-diazaspiro[4.5]decane-8-carboxylate], the “ABHD6 % Inh 5 mg/kg (mouse)” value at ABHD6 is listed as “# (# is < 25%)”. Further, the “MAGL % Inh 5 mg/kg (mouse)” value at MAGL was “# (# is < 25%)”. Also, the “FAAH % Inh 5 mg/kg (mouse)” value at FAAH is “# (# is < 25%)”.

Take `O=C(OC(C(F)(F)F)C(F)(F)F)N1CCC2(CCN(Cc3ccc(C(F)(F)F)cc3N3CCOCC3)C2)CC1` [Example 22, 1,1,1,3,3,3-Hexafluoropropan-2-yl 2-(2-morpholino-4-(trifluoromethyl)benzyl)-2,8-diazaspiro[4.5]decane-8-carboxylate]: on ABHD6, the “ABHD6 % Inh 5 mg/kg (mouse)” value is “# (# is < 25%)”. Also, the “MAGL % Inh 5 mg/kg (mouse)” value on MAGL was “### (### is ≥ 75%)”. The “FAAH % Inh 5 mg/kg (mouse)” value at FAAH was “# (# is < 25%)”.

As for `O=C(OC(C(F)(F)F)C(F)(F)F)N1CCC2(CCN(Cc3ccc(Cl)cc3N3CCCCC3)C2)CC1` [Example 24, 1,1,1,3,3,3-Hexafluoropropan-2-yl 2-(4-chloro-2-(piperidin-1-yl)benzyl)-2,8-diazaspiro[4.5]decane-8-carboxylate], the “ABHD6 % Inh 5 mg/kg (mouse)” value at ABHD6 is on record as “# (# is < 25%)”. The “MAGL % Inh 5 mg/kg (mouse)” value at MAGL was “### (### is ≥ 75%)”. Further, the “FAAH % Inh 5 mg/kg (mouse)” value on FAAH is “# (# is < 25%)”.

For `O=C(OC(C(F)(F)F)C(F)(F)F)N1CCC2(CCCN2Cc2cccc(OCCF)c2)CC1` [Example 27, 1,1,1,3,3,3-Hexafluoropropan-2-yl 1-(3-(2-fluoroethoxy)benzyl)-1,8-diazaspiro[4.5]decane-8-carboxylate], the “ABHD6 % Inh 5 mg/kg (mouse)” value at ABHD6 is “# (# is < 25%)”. Moreover, the “MAGL % Inh 5 mg/kg (mouse)” value at MAGL was “### (### is ≥ 75%)”. The “FAAH % Inh 5 mg/kg (mouse)” value on FAAH was “# (# is < 25%)”.

As for `O=C(OC(C(F)(F)F)C(F)(F)F)N1CCC2(CCCN2Cc2ccc(Cl)c(OCCF)c2)CC1` [Example 28, 1,1,1,3,3,3-Hexafluoropropan-2-yl 1-(4-chloro-3-(2-fluoroethoxy)benzyl)-1,8-diazaspiro[4.5]decane-8-carboxylate], the “ABHD6 % Inh 5 mg/kg (mouse)” value at ABHD6 is “# (# is < 25%)”. Moreover, on MAGL, the “MAGL % Inh 5 mg/kg (mouse)” value is reported as “### (### is ≥ 75%)”. Also, the “FAAH % Inh 5 mg/kg (mouse)” value at FAAH was “# (# is < 25%)”.

For `O=C(OC(C(F)(F)F)C(F)(F)F)N1CCC2(CCCN2Cc2ccc(F)c(OCCF)c2)CC1` [Example 29, 1,1,1,3,3,3-Hexafluoropropan-2-yl 1-(4-fluoro-3-(2-fluoroethoxy)benzyl)-1,8-diazaspiro[4.5]decane-8-carboxylate], the “ABHD6 % Inh 5 mg/kg (mouse)” value at ABHD6 was “### (### is ≥ 75%)”. The “MAGL % Inh 5 mg/kg (mouse)” value at MAGL is on record as “### (### is ≥ 75%)”.

`O=C(OC(C(F)(F)F)C(F)(F)F)N1CCC2(CCCN2Cc2ccc(Cl)cc2OCCF)CC1` [Example 30, 1,1,1,3,3,3-Hexafluoropropan-2-yl 1-(4-chloro-2-(2-fluoroethoxy)benzyl)-1,8-diazaspiro[4.5]decane-8-carboxylate]: the “ABHD6 % Inh 5 mg/kg (mouse)” value on ABHD6 was “# (# is < 25%)”. The “MAGL % Inh 5 mg/kg (mouse)” value on MAGL was “### (### is ≥ 75%)”. The “FAAH % Inh 5 mg/kg (mouse)” value at FAAH is “# (# is < 25%)”.

With `CCOc1cc(CN2CCCC23CCN(C(=O)OC(C(F)(F)F)C(F)(F)F)CC3)ccc1Cl` [Example 32, 1,1,1,3,3,3-Hexafluoropropan-2-yl 1-(4-chloro-3-ethoxybenzyl)-1,8-diazaspiro[4.5]decane-8-carboxylate], at ABHD6, the “ABHD6 % Inh 5 mg/kg (mouse)” value is “# (# is < 25%)”. Moreover, the “MAGL % Inh 5 mg/kg (mouse)” value at MAGL is “### (### is ≥ 75%)”. In addition, on FAAH, the “FAAH % Inh 5 mg/kg (mouse)” value is given as “# (# is < 25%)”.

With `O=C(OC(C(F)(F)F)C(F)(F)F)N1CCC2(CCCN2Cc2cc(Cl)cc(N3CCOCC3)c2)CC1` [Example 33, 1,1,1,3,3,3-Hexafluoropropan-2-yl 1-(3-chloro-5-morpholinobenzyl)-1,8-diazaspiro[4.5]decane-8-carboxylate], the “ABHD6 % Inh 5 mg/kg (mouse)” value on ABHD6 is recorded as “# (# is < 25%)”. The “MAGL % Inh 5 mg/kg (mouse)” value on MAGL is recorded as “### (### is ≥ 75%)”.

In the case of `CC1(C)CC2(CCN(C(=O)OC(C(F)(F)F)C(F)(F)F)CC2)CN1Cc1ccc(Cl)cc1` [Example 48, 1,1,1,3,3,3-Hexafluoropropan-2-yl 2-(4-chlorobenzyl)-3,3-dimethyl-2,8-diazaspiro[4.5]decane-8-carboxylate], the “MAGL % Inh 5 mg/kg (mouse)” value at MAGL is “### (### is ≥ 75%)”. For the same compound, the “FAAH % Inh 5 mg/kg (mouse)” value at FAAH is recorded as “# (# is < 25%)”.

For the compound `O=C(OC(C(F)(F)F)C(F)(F)F)N1CCC2(CCCN2Cc2ccccc2Cl)CC1` [Example 60, 1,1,1,3,3,3-Hexafluoropropan-2-yl 1-(2-chlorobenzyl)-1,8-diazaspiro[4.5]decane-8-carboxylate], the “ABHD6 % Inh 5 mg/kg (mouse)” value at ABHD6 is reported as “# (# is < 25%)”. Further, the “MAGL % Inh 5 mg/kg (mouse)” value on MAGL is “### (### is ≥ 75%)”.

Take `CCN1CCCc2cccc(CN3CCC4(CCN(C(=O)OC(C(F)(F)F)C(F)(F)F)CC4)C3)c21` [Example 71, 1,1,1,3,3,3-Hexafluoropropan-2-yl 2-((1-ethyl-1,2,3,4-tetrahydroquinolin-8-yl)methyl)-2,8-diazaspiro[4.5]decane-8-carboxylate]: the “MAGL % Inh 5 mg/kg (mouse)” value on MAGL was “### (### is ≥ 75%)”. The “FAAH % Inh 5 mg/kg (mouse)” value on FAAH is on record as “# (# is < 25%)”.

For the compound `O=C(OC(C(F)(F)F)C(F)(F)F)N1CCC2(CCCN2Cc2ccc(Cl)cc2N2CCC2)CC1` [Example 107, 1,1,1,3,3,3-Hexafluoropropan-2-yl 1-(2-(azetidin-1-yl)-4-chlorobenzyl)-1,8-diazaspiro[4.5]decane-8-carboxylate], on ABHD6, the “ABHD6 % Inh 5 mg/kg (mouse)” value is recorded as “# (# is < 25%)”. In addition, the “MAGL % Inh 5 mg/kg (mouse)” value on MAGL is reported as “### (### is ≥ 75%)”.

With `O=C(O)C1CCN(c2cc(CN3CCCC34CCN(C(=O)OC(C(F)(F)F)C(F)(F)F)CC4)cc(C(F)(F)F)c2)CC1` [Example 123, 1-(3-((8-(((1,1,1,3,3,3-Hexafluoropropan-2-yl)oxy)carbonyl)-1,8-diazaspiro[4.5]decan-1-yl)methyl)-5-(trifluoromethyl)phenyl)piperidine-4-carboxylic acid], the “MAGL % Inh 5 mg/kg (mouse)” value on MAGL is listed as “### (### is ≥ 75%)”. Also, the “FAAH % Inh 5 mg/kg (mouse)” value on FAAH is reported as “# (# is < 25%)”.

As to `CS(=O)(=O)N1CCc2cccc(CN3CCCC34CCN(C(=O)OC(C(F)(F)F)C(F)(F)F)CC4)c2C1` [Example 146, 1,1,1,3,3,3-Hexafluoropropan-2-yl 1-((2-methanesulfonyl-1,2,3,4-tetrahydroisoquinolin-8-yl)methyl)-1,8-diazaspiro[4.5]decane-8-carboxylate], at MAGL, the “MAGL % Inh 5 mg/kg (mouse)” value is on record as “### (### is ≥ 75%)”. Besides, the “FAAH % Inh 5 mg/kg (mouse)” value on FAAH was “# (# is < 25%)”.

For `O=C(OC(C(F)(F)F)C(F)(F)F)N1CCC2(CCN(Cc3ccc(C(F)(F)F)c(N4CCCC4)c3)C2)CC1` [Example 157, 1,1,1,3,3,3-Hexafluoropropan-2-yl 2-(3-(pyrrolidin-1-yl)-4-(trifluoromethyl)benzyl)-2,8-diazaspiro[4.5]decane-8-carboxylate], the “MAGL % Inh 5 mg/kg (mouse)” value at MAGL is listed as “### (### is ≥ 75%)”. Moreover, on FAAH, the “FAAH % Inh 5 mg/kg (mouse)” value is given as “# (# is < 25%)”.

For the compound `O=C(O)c1cc(CN2CCCC23CCN(C(=O)OC(C(F)(F)F)C(F)(F)F)CC3)ccc1C(F)(F)F` [Example 179, 5-((8-((1,1,1,3,3,3-Hexafluoropropan-2-yloxy)carbonyl)-1,8-diazaspiro[4.5]decan-1-yl)methyl)-2-(trifluoromethyl)benzoic acid], the “ABHD6 % Inh 5 mg/kg (mouse)” value on ABHD6 is recorded as “# (# is < 25%)”. Besides, on MAGL, the “MAGL % Inh 5 mg/kg (mouse)” value is “### (### is ≥ 75%)”.

As to `N#Cc1cc(CN2CCCC23CCN(C(=O)OC(C(F)(F)F)C(F)(F)F)CC3)cc(N2CCC(C(=O)O)CC2)c1` [Example 210], the “MAGL % Inh 5 mg/kg (mouse)” value at MAGL was “### (### is ≥ 75%)”. In addition, on FAAH, the “FAAH % Inh 5 mg/kg (mouse)” value is “# (# is < 25%)”.
